Data from patent publication US11884675B2, “Heterocyclic compounds as triggering receptor expressed on myeloid cells 2 agonists and methods of use” (AMGEN INC., priority 2020, dated 2024).

What follows are compounds tested against hTREM2 (Homo sapiens, UniProt Q9NZC2) (assay: TREM2 activity by cellular Syk phosphorylation (AlphaScreen/AlphaLISA) in TREM2/DAP12-HEK cells, used for Examples 1-305). Conditions: HEK293 Cells.
Type: cell-based
Set-up: expressed in transfected cells
Procedure, shortened: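 Single-cell-cloned HEK293 cells overexpressing TREM2 and DAP12, seeded 20 h, exposed to test articles (1% final DMSO) for 45 min at room temperature. Lysates read for phospho-Syk (Tyr525/526) vs total Syk by AlphaScreen. Signal normalised as percent of control between isotype IgG and 100 nM anti-TREM2 antibody; 4-parameter logistic fit.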

hTREM2, sequence (Q9NZC2 19-230): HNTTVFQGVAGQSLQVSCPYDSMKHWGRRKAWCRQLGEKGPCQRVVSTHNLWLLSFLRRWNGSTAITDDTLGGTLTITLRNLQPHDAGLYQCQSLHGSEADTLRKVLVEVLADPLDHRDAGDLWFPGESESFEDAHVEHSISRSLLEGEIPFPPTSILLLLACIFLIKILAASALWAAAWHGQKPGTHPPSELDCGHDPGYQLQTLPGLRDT
hTREM2, sequence (O43914 22-113 partner): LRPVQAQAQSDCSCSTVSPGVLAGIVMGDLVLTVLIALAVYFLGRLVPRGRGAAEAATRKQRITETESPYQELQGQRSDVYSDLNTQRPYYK

**Q.** Which results are given for `Cc1nc2nc(N3CCO[C@@H](c4cnn(C)c4)C3)nc([C@H]3C[C@@H](C(F)F)C3)c2nc1C` [Example 44, 4-(cis-3-(difluoromethyl)cyclobutyl)-6,7-dimethyl-2-((2S)-2-(1-methyl-1H-pyrazol-4-yl)-4-morpholinyl)pteridine]?
**A.** EC50: 50 to 500 nM; hTREM2 Emax: +++ (Emax>150 and ≤250)

**Q.** How did the EC50 turn out when `Cc1ccc2c(-c3ccc(Cl)cc3F)nc([C@@H]3CCO[C@H](c4cnn(C)c4)C3)nc2n1` [Example 288, 4-(4-chloro-2-fluorophenyl)-7-methyl-2-((2S,4R)-2-(1-methyl-1H-pyrazol-4-yl)tetrahydro-2H-pyran-4-yl)pyrido[2,3-d] pyrimidine] was run?
**A.** Its EC50 is at most 50 nM.

**Q.** And the “hTREM2 Emax” value?
**A.** Its value is “++ (Emax>100 and ≤150)”.

**Q.** For `Cc1ccc(-c2nc(N3CCO[C@@H](c4cnn(C)c4)C3)nc3nc(C)ccc23)c(F)c1` [Example 94, 4-(2-fluoro-4-methylphenyl)-7-methyl-2-((2S)-2-(1-methyl-1H-pyrazol-4-yl)-4-morpholinyl)pyrido[2,3-d]pyrimidine], which EC50 is on record?
**A.** Its EC50 is 50 to 500 nM.

**Q.** What about the “hTREM2 Emax” value of the same compound?
**A.** The value was “+++ (Emax>150 and ≤250)”.

**Q.** `Cc1ccc(-c2nc(N3CCO[C@@H](c4ccnc(C)c4)C3)nc3nc(C)c(C)nc23)c(F)c1` [Example 39, 4-(2-fluoro-4-methylphenyl)-6,7-dimethyl-2-((2S)-2-(2-methyl-4-pyridinyl)-4-morpholinyl)pteridine] was tested. Which EC50 did it give?
**A.** The EC50 was at most 50 nM.

**Q.** What about the “hTREM2 Emax” value of the same compound?
**A.** Its value is “+++ (Emax>150 and ≤250)”.

**Q.** For `Cc1ccc(-c2nc([C@@H]3CCO[C@H](c4cnn(C)c4)C3)cc3nc(C)c(C)nc23)c(F)c1` [Example 258, 5-(2-fluoro-4-methylphenyl)-2,3-dimethyl-7-((2S,4R)-2-(1-methyl-1H-pyrazol-4-yl)tetrahydro-2H-pyran-4-yl)pyrido[3,4-b]pyrazine], which EC50 is on record?
**A.** The EC50 was 500 to 3000 nM.

**Q.** And the “hTREM2 Emax” value?
**A.** Its value is “+++ (Emax>150 and ≤250)”.

**Q.** What does the source list for `Cc1ncc2c(-c3ccc(Cl)cc3F)cc(N3CCO[C@@H](c4cnn(C)c4)C3)cc2n1` [Example 153, 5-(4-chloro-2-fluorophenyl)-2-methyl-7-((2S)-2-(1-methyl-1H-pyrazol-4-yl)-4-morpholinyl) quinazoline]?
**A.** EC50: 50 to 500 nM; hTREM2 Emax: +++ (Emax>150 and ≤250)

**Q.** With `Cc1ncc([C@@H]2C[C@H](c3nc(-c4ccc(Cl)cc4F)c4nc(C)c(C)nc4n3)CCO2)cn1` [Example 282, 4-(4-chloro-2-fluorophenyl)-6,7-dimethyl-2-((2S,4R)-2-(2-methylpyrimidin-5-yl)tetrahydro-2H-pyran-4-yl)pteridine] as the compound, how does the EC50 read?
**A.** The EC50 was 500 to 3000 nM.

**Q.** What about the “hTREM2 Emax” value of the same compound?
**A.** Its value is “++ (Emax>100 and ≤150)”.

**Q.** What does the source list for `Cc1ccc(-c2nc([C@H]3CCO[C@H](c4cnn(C)c4)C3)nc3nc(C)c(C)nc23)c(F)c1` [Example 264, 4-(2-fluoro-4-methylphenyl)-6,7-dimethyl-2-((2S,4S)-2-(1-methyl-1H-pyrazol-4-yl)tetrahydro-2H-pyran-4-yl)pteridine]?
**A.** EC50: 500 to 3000 nM; hTREM2 Emax: ++++ (Emax>250)

**Q.** `Cc1nc2nc(N3CCO[C@@H](c4cnn(C)c4)C3)nc(C3=CCC(F)(F)CC3)c2nc1C` [Example 125, 4-(4,4-difluoro-1-cyclohexen-1-yl)-6,7-dimethyl-2-((2S)-2-(1-methyl-1H-pyrazol-4-yl)-4-morpholinyl)pteridine] was tested. Which EC50 did it give?
**A.** The EC50 was 50 to 500 nM.

**Q.** And the “hTREM2 Emax” value?
**A.** The value was “+++ (Emax>150 and ≤250)”.

**Q.** What does the source list for `Cc1cc([C@H]2CN(c3nc(-c4ccc(C(F)(F)F)nc4)c4nc(C)c(C)nc4n3)CCO2)cnn1` [Example 299, (S)-4-(6,7-dimethyl-4-(6-(trifluoromethyl)pyridin-3-yl)pteridin-2-yl)-2-(6-methylpyridazin-4-yl)morpholine]?
**A.** EC50: ≤ 50 nM; hTREM2 Emax: +++ (Emax>150 and ≤250)

**Q.** `Cc1nc2nc([C@H]3CCO[C@H](c4cnn(C)c4)C3)nc(-c3ccc(F)cc3F)c2nc1C` [Example 263, 4-(2,4-difluorophenyl)-6,7-dimethyl-2-((2S,4S)-2-(1-methyl-1H-pyrazol-4-yl)tetrahydro-2H-pyran-4-yl)pteridine] was tested. Which EC50 did it give?
**A.** The EC50 was 500 to 3000 nM.

**Q.** What about the “hTREM2 Emax” value of the same compound?
**A.** Its value is “+++ (Emax>150 and ≤250)”.

**Q.** For `Cc1cc2c(nc(N3CCO[C@@H](c4cnn(C)c4)C3)nc2[C@H]2C[C@H](C(F)(F)F)C2)nc1C` [Example 112, 6,7-dimethyl-2-((2S)-2-(1-methyl-1H-pyrazol-4-yl)-4-morpholinyl)-4-(trans-3-(trifluoromethyl)cyclobutyl)pyrido[2,3-d]pyrimidine], which EC50 is on record?
**A.** The EC50 was at most 50 nM.

**Q.** What about the “hTREM2 Emax” value of the same compound?
**A.** The value was “+++ (Emax>150 and ≤250)”.

**Q.** Which EC50 does the source give for `Cc1nc2nc([C@H]3CCO[C@@H](c4cnn(C)c4)C3)nc(-c3ccc(F)cc3F)c2nc1C` (single isomer, unassigned) [Example 182] here?
**A.** Its EC50 is at most 50 nM.

**Q.** And the “hTREM2 Emax” value?
**A.** Its value is “+++ (Emax>150 and ≤250)”.

**Q.** How did the EC50 turn out when `Cc1nc2nc(N3CCO[C@@H](c4cnn(C)c4)C3)nc([C@@H]3CCC(C)(C)C3)c2nc1C` [Example 303, (S)-4-(4-((R)-3,3-dimethylcyclopentyl)-6,7-dimethylpteridin-2-yl)-2-(1-methyl-1H-pyrazol-4-yl)morpholine] was run?
**A.** Its EC50 is 50 to 500 nM.

**Q.** What about the “hTREM2 Emax” value of the same compound?
**A.** The value was “++ (Emax>100 and ≤150)”.

**Q.** Which EC50 does the source give for `Cc1ccc(-c2nc(N3CCO[C@@H](c4cnn(C)c4)C3)nc3nc(C)c(C)nc23)c(F)c1` [Example 37, 4-(2-fluoro-4-methylphenyl)-6,7-dimethyl-2-((2S)-2-(1-methyl-1H-pyrazol-4-yl)-4-morpholinyl)pteridine] here?
**A.** The EC50 was at most 50 nM.

**Q.** What about the “hTREM2 Emax” value of the same compound?
**A.** Its value is “+++ (Emax>150 and ≤250)”.

**Q.** What does the source list for `Cc1cc([C@@H]2C[C@H](c3nc(-c4ccc(Cl)cc4F)c4nc(C)c(C)nc4n3)CCO2)ccn1` (single isomer, unassigned) [Example 206]?
**A.** EC50: 50 to 500 nM; hTREM2 Emax: ++++ (Emax>250)

**Q.** With `Cc1nc2cc([C@@H]3CCO[C@H](c4cnn(C)c4)C3)nc(-c3ccc(Cl)cc3F)c2nc1C` (single isomer, unassigned) [Example 193] as the compound, how does the EC50 read?
**A.** The EC50 was 50 to 500 nM.

**Q.** And the “hTREM2 Emax” value?
**A.** Its value is “++++ (Emax>250)”.

**Q.** With `Cc1cc([C@H]2CN(c3nc4nc(C)c(C)nc4c([C@H]4C[C@H](C(F)(F)F)C4)n3)CCO2)ccn1` [Example 55] as the compound, how does the EC50 read?
**A.** The EC50 was at most 50 nM.

**Q.** What about the “hTREM2 Emax” value of the same compound?
**A.** The value was “+++ (Emax>150 and ≤250)”.

**Q.** Which results are given for `Cc1ccc2c(n1)nc(N1CCO[C@@H](c3cnn(C)c3)C1)nc2[C@H]1C[C@@H](C(F)(F)F)C1` [Example 275, (S)-2-(1-methyl-1H-pyrazol-4-yl)-4-(7-methyl-4-((1s,3R)-3-(trifluoromethyl)cyclobutyl)pyrido[2,3-d]pyrimidin-2-yl)morpholine]?
**A.** EC50: 3000 to 100000 nM; hTREM2 Emax: + (Emax>45 and ≤100)

**Q.** `Cc1ccc2c(-c3ccc(Cl)cc3F)nc(N3CCO[C@@H](c4cnn(C5CC5)c4)C3)cc2n1` [Example 150, 5-(4-chloro-2-fluorophenyl)-7-((2S)-2-(1-cyclopropyl-1H-pyrazol-4-yl)-4-morpholinyl)-2-methyl-1,6-naphthyridine] was tested. Which EC50 did it give?
**A.** The EC50 was 50 to 500 nM.

**Q.** What about the “hTREM2 Emax” value of the same compound?
**A.** The value was “++++ (Emax>250)”.

**Q.** For `Cc1nc2nc(N3CCO[C@@H](c4cnn(C5CC5)c4)C3)nc(C3CC4(C3)CC(F)(F)C4)c2nc1C` [Example 49, 2-((2S)-2-(1-cyclopropyl-1H-pyrazol-4-yl)-4-morpholinyl)-4-(6,6-difluorospiro[3.3]heptan-2-yl)-6,7-dimethylpteridine], which EC50 is on record?
**A.** Its EC50 is at most 50 nM.

**Q.** What about the “hTREM2 Emax” value of the same compound?
**A.** The value was “++ (Emax>100 and ≤150)”.

**Q.** How did the EC50 turn out when `CCn1cc([C@H]2CN(c3cc4nc(C)cnc4c(-c4ccc(Cl)cc4F)n3)CCO2)cn1` [Example 75, 5-(4-chloro-2-fluorophenyl)-7-((2S)-2-(1-ethyl-1H-pyrazol-4-yl)-4-morpholinyl)-2-methylpyrido[3,4-b]pyrazine] was run?
**A.** The EC50 was 50 to 500 nM.

**Q.** What about the “hTREM2 Emax” value of the same compound?
**A.** The value was “++++ (Emax>250)”.
